“Also recorded” adds a separate entry of the source. No end group written: not given here.
Tests used:
[1] = system: gram-positive and negative bacteria; assay: Antibacterial activity and salt resistance, broth microdilution (MIC); assay type: cell-based
Description: (§1) The antibacterial activities were determined by the standard broth microdilution method of National Committee for Clinical Laboratory Standards with the MH and LYM broth. MH or LYM broth with 50, 100, 200, or 300 mM NaCl (containing 5.4 mM KCl, 5.6 mM Na2HPO4, 0.5 mM MgSO4, and 1.0 mM sodium citrate, 0.4 mg of ZnCl2, 2.0 mg of FeCl3.6H2O, 0.1 mg of CuSO4.5H2O, 0.1 mg of MnSO4.H2O, 0.1 mg of Na2B4O7.10H2O, 700 mg of amino acid mixtures without tryptophan (Clontech), and 20 mg of L-Tryptophan, 2% vitamin mixture (100×, Sigma) and glucose at final concentration of 2%) were used to serially dilute the anti-endotoxin polypeptide of the present invention to obtain anti-endotoxin polypeptide solutions with a concentration ranging from 3,200 to 100 μg/mL.
(§2) 1 μL of peptide solutions were mixed with 99 μL inoculums (5×10^5 CFU/mL) in polypropylene 96-well plates, respectively. The turbidity at OD600 nm was determined by ELISA plate reader (Thermo Max, Molecular Devices, Sunnyvale, Calif.). The absorbance of culture medium and inoculum without peptides were used as the negative and positive control, respectively. […] All peptides were tested in triplicate. […] KR12AGPKR6 peptide was very effective against bacteria in LYM broth condition (MIC=about 2 μg/mL).

[2] = LPS aggregation, dynamic light scattering; conditions: peptide 8 and 16 μg/mL, LPS 25 μM
Description: The LPS molecule were dissolved in chloroform:methanol (2:1) then the stock solution was sonicated at 40° C. for 20 minutes and then kept at 4° C. overnight. The stock solution were diluted to 25 μM by using 20 mM sodium phosphate buffer with 150 mM sodium chloride and then at 4° C. overnight for use. Peptide concentration was diluted to 8 or 16 μg/mL. After the LPS solution was interacted with the peptide solution, the particle size and distribution analysis was measured by dynamic light scattering in Malvern Zetasizer ZS (Malvern, UK).

[3] = system: LPS (Control Standard Endotoxin); assay: Binding and neutralization of LPS, Limulus Amebocyte Lysate (LAL) assay; assay type: biochemical; conditions: peptide 8-128 μg/mL, CSE 5EU
Description: The abilities of the anti-endotoxin polypeptides to bind and neutralize LPS were assessed using Limulus Amebocyte Lysate (LAL) assay (Cape Cod Inc, East Falmouth, Mass., USA). 25 μL of different peptide concentration (128, 64, 32, 16, and 8 μg/mL) were mixed with 25 μL CSE (Control Standard Endotoxin) (5EU) in a 96-well plate, and 50 μL of Pyrochrome® reagent was added to wells immediately. The absorbance at 405 nm was measured by microplate reader at 37° C. for 25 minutes.

[4] = Peptide-induced calcein leakage of POPC/LPS LUVs
Description: (§3) In this embodiment, the large unilamellar vesicles (LUVs) of POPC/LPS (POPC:LPS=12.5:1 mol/mol), POPC/cholesterol (POPC:cholesterol=2:1 mol/mol), and POPC:POPG (POPC:POPG=3:1 mol/mol) were prepared by the extrusion method with Avanti small-volume extrusion apparatus (Avanti Polar Lipid). Calcein-filed LUVs were prepared by calcein-containing buffer (70 mM calcein and 10 mM Tris at pH 7.4). Peptide-induced calcein leakages were measured by Perkin-Elmer luminescence spectrofluorimeter at excitation and emission wavelengths of 496 and 515 nm, respectively. Leakage is expressed as a percentage relative to the total amount of dye released by addition of 100 mg/mL of Triton X-100, which represented 100% leakage (the maximum fluorescence intensity).
(§4) The degree of leakage induced by various concentrations of polypeptides was estimated by: % leakage=(F−F0)/(Fr−F0)×100%, wherein the F0 is the initial fluorescence intensity observed without peptide, and Fr is the fluorescence intensity of 100% leakage.

[5] = Peptide-induced calcein leakage of POPC/POPG LUVs
Description: as §3, §4

Acinetobacter sp. = assay: Antibacterial activity, broth microdilution, Acinetobacter sp.; assay type: cell-based
Description: as §1, §2

Cytotoxicity, MTT assay = assay type: cell-based; conditions: mouse, J744A.1 cells, 64 μg/mL, read-out: survival rate
Description: In this embodiment, the cytotoxicity was evaluated by MTT assay. J744A.1 cells were seeded in a 96-well plate with 10^4 cells/100 μL/well and incubated for 24 hours. After removing the medium, 100 μL of fresh medium containing anti-endotoxin polypeptide (2 to 64 μg/mL) was added to the wells. After 24 hours incubation, the fresh medium with 0.5 mg/mL MTT was added and incubated for 3 hours. After the medium/MTT was removed, DMSO was added at 100 μL for dissolving the formazan crystal. Cell survival rate was calculated by measuring the absorbance at 450 nm using Multi-labeled Microplate Reader (VICTOR 3).

[6] = system: E. coli O26:B6 LPS-induced endotoxemia; assay: Mouse model of endotoxemia; assay type: in vivo, C57BL/6 mice; conditions: 18 mg/kg LPS plus 10 mg/kg peptide i.p.
Description: 5-week old male C57BL/6 mice were purchased from National Laboratory Animal Center (Taiwan). Mice were divided into three groups (five in each group) with intraperitoneal (i.p.) injection of (a) 18 mg/kg of body weight E. coli O26:B6 LPS, (b) 18 mg/kg body weight LPS plus 10 mg/kg peptide, and (c) no treatment. Blood was collected via tail vein 1.5 hours after injection. Whole blood was centrifuged at 3,000 rpm at 4° C. for 10 minutes. After 24 hours, all mice were sacrificed. The lungs were removed and fixed in 4% formaldehyde buffer, and deparaffinized in UltraClear buffer (J. K. Baker) and graded ethanol. Histology of lung sections was performed by hematoxylin and eosin (H&E) staining. Tissue images were captured using light microscope (Eclipse E400, Nikon) with digital microscopy camera (AxioCam ICc 5, ZEISS).

[7] = POPC/LPS LUVs aggregation, dynamic light scattering; conditions: peptide 8 and 16 μg/mL
[8] = system: NO production in J744A.1 cells; assay: Inhibition of LPS-induced NO production (Griess reagent); assay type: cell-based; conditions: LPS 150 ng/mL, peptide 2-32 μg/mL, 24 hours
Description: (§5) J744A.1 cells (3×10^5 cells) were seeded in a 24-well plate and incubated for 24 hours. Cells were washed by PBS and LPS (E. coli 026:B6 (SIGMA, 150 ng/mL)) and the anti-endotoxin polypeptide of the present invention (2-32 μg/mL) were added to the wells. After 24 hours treatment, culture supernatant was harvested and centrifuged at 1,000 rpm for 10 minutes. 50 μL of culture supernatant was mixed with 50 μL Griess reagent (SIGMA) in a 96-well plate and incubated at room temperature for 10 minutes. The absorbance at 540 nm was measured and the NO concentration was calculated. Additionally, the concentration of TNF-α in the culture supernatant was evaluated using ELISA kits (eBiosciences).

[9] = system: TNF-α release in J744A.1 cells; assay: Inhibition of LPS-induced TNF-α release (ELISA); assay type: cell-based; conditions: LPS 150 ng/mL, peptide 2-32 μg/mL, 24 hours
Description: as §5

[10] = relative to Triton X-100 = 100%

Substance	antibacterial activity ([1]; MH or LYM broth)	LPS aggregation and particle size [2]	LPS-neutralizing activity (LAL assay) [3]	calcein leaking activity [4]	calcein leaking activity [5]	antibacterial activity ([1]; 300 mM salt condition)	antibacterial effectiveness compared to other bacteria strain (Acinetobacter sp.)	antibacterial activity ([1]; 200 mM NaCl)	antibacterial activity ([1]; low NaCl condition)	calcein leakage [4, 10]	calcein leakage [5, 10] [%]	minimum inhibitory concentration (MIC) ([1]; high salt conditions) [µg/mL]	viability at 24 h, 64 µg/mL (Cytotoxicity, MTT assay) [%]	level of TNF-α in blood ([6]; blood 1.5 hours after injection)	proliferation of alveolar epithelial cells and pulmonary hemorrhage (lung histology) ([6]; lungs after 24 hours, H&E)	POPC/LPS LUVs aggregation and particle size [7]	inhibition of NO production [8]	inhibition of TNF-α release [9]
KRIVQRAGPIKDFLR (The anti-endotoxin polypeptide synthesized from the laboratory) [KR15AGP]	did not show any activity	did not aggregate LPS and change particle size	only small effects	–	–	–	–	–	–	–	–	–	–	–	–	–	–	–
KRIVQRIKDFLRAGPIKDFLR [KR12AGPKR6]	–	did not aggregate LPS and change particle size	only small effects	show leaking activities; also recorded: does-dependent calcein leaking activities	show leaking activities; also recorded: does-dependent calcein leaking activities	inactive totally	more effective	–	–	–	–	–	–	–	–	–	–	–
KRIVQRIKDFLRAGPRRLVRI (The anti-endotoxin polypeptide synthesized from the laboratory) [KR12AGPVR6]	–	did not aggregate LPS and change particle size	only small effects	show leaking activities; also recorded: does-dependent calcein leaking activities	show leaking activities; also recorded: does-dependent calcein leaking activities	–	more effective	lost its activities	high activities	–	–	–	–	–	–	–	–	–
Ac-KRIVQRIKDFLRAGPRRWWRW-NH2 (N-terminus and C-terminus assumed) [KR12AGPWR6]	–	promoted	better LPS-neutralizing activity; also recorded: neutralize downstream reaction dose-dependently	show leaking activities; also recorded: does-dependent calcein leaking activities	show leaking activities; also recorded: does-dependent calcein leaking activities	–	more effective	–	–	about 80%	~70	2 to 4	~70	significantly lower; also recorded: suppress	significantly decreased; also recorded: improve	promoted	inhibit concentration-dependently	inhibited

Source: patent US10611799B2, “Anti-endotoxin polypeptide” (priority 2017, dated 2020)
